Test results published in US5576433A, “Fluorescent calcium indicators targeted to specific intracellular environments” (priority 1994, dated 1996).
Read-outs that look alike come from different tables or passages of the source. Values belong to the compound of their own block, whether it stands above or below them.

What was measured:
[1] = read-out: apparent Kd for EGTA (assumed), cited from earlier work
[2] = Spectral properties (absorbance and fluorescence with and without calcium); type: physicochemical
[3] = Calcium Kd of indicator in solution (Table 1); type: binding
[4] = Magnesium Kd of indicator (Table 1); type: binding
Description: (§1) The excitation spectrum was recorded of 1 μM FFP18 in 2.5 ml of 130 mM KCl, 20 mM NaCl, 1 mM EGTA, 10 mM MOPS, pH 7.05 at 37° C. Then 25 μl of the solution was replaced with 25 μl of a solution containing 1 μM of that same dye, 111.2 mM MgC12, 12.2 mM EGTA, 10 mM MOPS, pH 7.05. This exchange yielded 1 mM free Mg^2+ 0.2 and 5 mM free Mg^2+ were obtained by successively exchanging 25.25 and 76.53 μl of the original solution with that of the latter solution containing the high concentration of Mg^2+. Emission was collected at 490 nm for fura-PE3 and 485 nm for FFP18, 4 nm band pass, and excitation 5 nm band pass.
as §1, with “1 μM PE3 in 2.5” for “1 μM FFP18 in 2.5”, “1 μM PE3, 111.2 mM” for “1 μM of that same dye, 111.2 mM”, “mM free Mg^2+. The 2 and 5” for “mM free Mg^2+ 0.2 and 5”, “free Mg^2+ concentrations were obtained” for “free Mg^2+ were obtained”

[5] = pH sensitivity of the calcium dissociation constant (Table 2); type: binding; conditions: 100 mM KCl, 10 mM MOPS
Source text: The calcium dissociation constant of BAPTA-like calcium chelators and indicators is strongly affected by electron withdrawing effects of substituents on the BAPTA aromatic rings. The zwitterionic indicators described herein each contain an ionizable amine. The difference in electron withdrawing effects of the ionized and unionized amine could potentially communicate to BAPTA, creating a situation were the calcium affinity varied with pH. The design of PE3 and FFP18 was aimed at minimizing or eliminating this possibility by insulating the ionizable amine from the BAPTA ring with an aliphatic spacer containing one or more carbons. To test the effectiveness of this design, the calcium Kd of PE3 and FFP18 was measured at different pH values and compared to the values obtained for fura-2. […] Thus, the aim of the test was to determine whether the piperazine amino group gives the indicator increased pH sensitivity.
On page 36 of U.S. Pat. No. 4,603,209 (Tsien, et. al., 1987 Aug. 25), R2 is claimed as H, CH3, F, Cl, Br and […]. The R2 of PE3 and FFP18 is none of these claimed in that patent.

[6] = tested on: 322 T lymphoma cells; experiment: Leakage of indicator from loaded cells / drift of apparent baseline calcium; type: cell-based; conditions: for apparent baseline intracellular calcium / dye leakage (in words): cells loaded with AM ester 1 hour, HBSS with 1% fetal bovine serum
[7] = tested on: 322 T lymphoma cells; experiment: Response of PE3 loaded cells to changes in intracellular calcium
[8] = tested on: PTK1 cells; conditions: cited from earlier work
[9] = tested on: intracellular [Ca^2+ ] transients; experiment: Recorded versus calculated calcium influx; type: cell-based; conditions: 4 cells
Description: FIG. 13 and FIG. 13A show the relationship between the intracellular [Ca^2+ ] transients over time for fura-2 and FFP18. In Example 7, the relationship between the intracellular [Ca^2+ ] transients reported by FFP18 or fura-2 and calculated [Ca^2+ ] transients representing calcium influx are shown as a function of time. The amount of Ca^2+ entering the cell across the membrane was calculated by integrating the inward current signal and converting the charge to moles of Ca^2+ per cell volume. This [Ca^2+ ] was divided by the average buffering capacity of these cells. […] The [Ca^2+ ] transients reported by the calcium indicators are shown by the more noisy traces.
The amount of Ca^2+ entering the cell across the membrane was calculated by integrating the inward current signal and converting the charge to moles of Ca^2+ per cell volume. This [Ca^2+ ] was divided by the average buffering capacity of these cells. […]
In 4 cells where the [Ca^2+ ] transient was recorded using fura-2, the magnitude of the recorded and calculated increases in [Ca^2+ ] were similar. The ratio of calcium influx measured using fura-2 to the calcium influx calculated from the integral of the current at the 200 msec time point gives a value of 0.9+/-0.05 [nM (recorded)/nM(calculated)].

[10] = tested on: Tradescantia cells; conditions: within a short time; Hepler and Poenie, unpublished; cited from earlier work
[11] = tested on: muscle calcium; conditions: Hollingsworth and Baylor; cited from earlier work
[12] = tested on: calcium transient during mitosis; conditions: Kao et al.; cited from earlier work
[13] = tested on: leakage and compartmentalization of fura-2; conditions: cited from earlier work
[14] = pH 6.9, 20° C., read-out: calcium Kd at pH 6.9
[15] = pH 7.3, 20° C., read-out: calcium Kd at pH 7.3

SMILES: O=C(O)CN(CCOCCOCCN(CC(=O)O)CC(=O)O)CC(=O)O [EGTA, ethylene glycol bis(beta-aminoethyl ether)N,N,N'N'tetraacetic acid]
- Kd ([1]; pH 6.9, 20° C.): 0.594 µM
- Kd ([1]; pH 7, 20° C.): 0.0954 µM

- Fluorescence Quantum Efficiency, Ca bound ([2]; Ca bound): 0.27
- Peak Absorption Wavelength, Ca bound ([2]; Ca bound): 335 nm
- Peak Emission Wavelength, Ca bound ([2]; Ca bound): 495 nm
- Fluorescence Quantum Efficiency, Free anion ([2]; Free anion): .043
- Peak Absorption Wavelength, Free anion ([2]; Free anion): 364 nm
- Peak Emission Wavelength, Free anion ([2]; Free anion): 508 nm
- absorbance, excitation, emission and quantum efficiency (in words) ([2]; presence and absence of calcium): all typical of fura-2
- calcium binding affinity compared with fura-2 (in words) [3]: somewhat weaker than that of fura-2
- Kd ([3]; 20° C., 100 mM KCl, 10 mM MOPS, pH 7.3 (footnote c)): 0.204 µM
- Kd ([3]; 37° C., 130 mM KCl, 20 mM NaCl, 1 mM free MgCl2, MOPS, pH 7.05 (footnote a)): 0.209 µM
- Kd ([4]; 20° C.): 4300 µM
- Kd ([4]; 37° C.): 4000 µM
- Kd [5, 14]: 0.269 ± 0.003 µM
- Kd [5, 15]: 0.204 ± 0.004 µM
SMILES: O=C(O)CN1CCN(C(=O)CCc2ccc(N(CC(=O)O)CC(=O)O)c(OCCOc3cc4cc(-c5ncc(C(=O)O)o5)oc4cc3N(CC(=O)O)CC(=O)O)c2)CC1 [PE3]
- leakage and compartmentalization (in words) [6]: resists leakage and compartmentalization
- apparent baseline intracellular calcium / dye leakage (in words) [6]: small change in baseline intracellular calcium levels reflects the lower leakage rate out of the cell
- fluorescence response at 340 nm to increase in calcium ([7]; after Concanavalin A): fluorescense at 340 nm increases
- fluorescence response at 380 nm to increase in calcium ([7]; after Concanavalin A): fluorescense at 380 nm decreases
- fluorescence response at 340 nm and 380 nm ([7]; after ionomycin): even greater response of the indicator at 340 nm and 380 nm
- fluorescence after reducing free calcium with EGTA ([7]; digitonin lysed, EGTA added): fluorescense at 380 nm now becomes much brighter while the fluorescense at 340 becomes dim

SMILES: CC(=O)OCOC(=O)CN(CC(=O)OCOC(C)=O)c1ccc(C)cc1OCCOc1cc2cc(-c3ncc(C(=O)OCOC(C)=O)o3)oc2cc1N(CC(=O)OCOC(C)=O)CC(=O)OCOC(C)=O [fura-2/AM]
- loading in cells (in words) [8]: consistent failure

- Kd [5, 14]: 0.216 ± 0.004 µM
- Kd [5, 15]: 0.161 ± 0.002 µM
SMILES: Cc1ccc(N(CC(=O)O)CC(=O)O)c(OCCOc2cc3cc(-c4ncc(C(=O)O)o4)oc3cc2N(CC(=O)O)CC(=O)O)c1 [fura-2]
- apparent baseline intracellular calcium / dye leakage (in words) [6]: continuous increase in apparent intracellular calcium levels
- magnitude of recorded versus calculated increase in [Ca^2+ ] (in words) [9]: similar
- ratio of calcium influx recorded by indicator to calcium influx calculated ([9]; calculated from integral of the current at the 200 msec time point (time point stated for fura-2)): 0.9+/-0.05 nM (recorded)/nM(calculated)
- transfer of cytosolic indicator to vacuole (in words) [10]: virtually all of the cytosolic indicator was transferred to the vacuole
- ability to follow rapid changes in muscle calcium [11]: not fast enough to follow rapid changes in muscle calcium and was unable to track calcium levels at their peak
- detection of calcium transient during mitosis [12]: seldom seen

SMILES: CCCN(CCC)S(=O)(=O)c1ccc(C(=O)O)cc1 [probenecid]
- effect on leakage and compartmentalization of fura-2 [13]: help reduce leakage and compartmentalization

SMILES: Cc1ccc(N(CC(=O)O)CC(=O)O)c(OCCOc2cc(-c3c4ccc(=[N+](C)C)cc-4oc4cc(N(C)C)ccc34)ccc2N(CC(=O)O)CC(=O)O)c1 [rhod-2]
- transfer of cytosolic indicator to vacuole (in words) [10]: differed in this respect

SMILES: O=C1C(CC[S+]([O-])c2ccccc2)C(=O)N(c2ccccc2)N1c1ccccc1 (stereo not shown) [sulfinpyrazone]
- effect on leakage and compartmentalization of fura-2 [13]: help reduce leakage and compartmentalization
